Source: article PMC13288134 (Structure (London, England : 1993), 2025)

Assays:
TvVip1 [1] = target: T1, TvVip1 (Trichoderma virens, UniProt G9MQB8); assay: competition: deu-5'-dA formation by LC-MS, Cheng-Prusoff from IC50 and Km; type: biochemical; conditions: calculated from average IC50 and Km; competitive assumption; 1 mM deuUTP, 1 mM SAM, 10 μM enzyme, dithionite, HEPES pH 7.5
TvVip2 [2] = target: T2, TvVip2 (Trichoderma virens, UniProt G9N0G3); assay: X-ray crystal structure, […] Å; type: binding; conditions: active site, anaerobic
T2 sequence (G9N0G3 32-328): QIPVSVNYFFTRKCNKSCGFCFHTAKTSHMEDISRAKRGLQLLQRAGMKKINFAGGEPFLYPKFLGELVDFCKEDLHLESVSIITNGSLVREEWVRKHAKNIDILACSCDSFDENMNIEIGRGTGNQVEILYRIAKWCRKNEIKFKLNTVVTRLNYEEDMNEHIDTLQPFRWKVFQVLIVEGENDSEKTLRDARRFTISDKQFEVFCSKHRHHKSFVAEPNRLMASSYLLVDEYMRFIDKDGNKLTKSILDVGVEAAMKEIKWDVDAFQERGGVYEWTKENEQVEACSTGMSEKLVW

TvVip1 CTP-swap V2 [3] = target: T3, TvVip1 CTP-swap V2 (Trichoderma virens, UniProt Z9USF9BXN2); assay: competition: deu-5'-dA formation by LC-MS, Cheng-Prusoff from IC50 and Km; type: biochemical; conditions: calculated from average IC50 and Km; competitive assumption; 1 mM deuUTP, 1 mM SAM, 10 μM enzyme, dithionite, HEPES pH 7.5
T3 sequence (Z9USF9BXN2 24-317): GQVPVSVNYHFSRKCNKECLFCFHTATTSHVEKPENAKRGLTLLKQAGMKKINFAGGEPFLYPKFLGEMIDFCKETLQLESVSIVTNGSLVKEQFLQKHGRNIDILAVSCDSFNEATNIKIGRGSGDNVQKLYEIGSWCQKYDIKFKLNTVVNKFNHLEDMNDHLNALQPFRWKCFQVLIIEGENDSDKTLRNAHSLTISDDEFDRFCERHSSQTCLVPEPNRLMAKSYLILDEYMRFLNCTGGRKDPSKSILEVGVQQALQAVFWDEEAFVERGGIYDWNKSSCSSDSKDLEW

TvVip1 [4] = target: T1, TvVip1; assay: competition: loss of deu-5'-dA formation from […] deuterated NTP, LC-MS; type: biochemical
TvVip2 [5] = target: TvVip2 (Trichoderma virens, UniProt G9N0G3, F40H); assay: X-ray crystal structure, […] Å; type: binding; conditions: active site, anaerobic
TvVip1 CTP-swap V2 [6] = target: T3, TvVip1 CTP-swap V2; assay: competition: deu-5'-dA formation by LC-MS, Cheng-Prusoff from IC50 and Km; type: biochemical; conditions: calculated from average IC50 and Km; competitive assumption; 1 mM deuCTP, 1 mM SAM, 10 μM enzyme, dithionite, HEPES pH 7.5

Compound | Ki (CTP) (TvVip1 [1]) [µM] | X-ray crystal structure, 1.5 Å (TvVip2 [2]; with SAM and [4Fe-4S]) | Ki (CTP) (TvVip1 CTP-swap V2 [3]) [µM] | IC50 (TvVip1 [4]) [µM] | X-ray crystal structure, 2.3 Å (TvVip2 [5]; with SAM and [4Fe-4S]) | X-ray crystal structure, 1.5 Å (TvVip2 [2]; with CTP and [4Fe-4S]) | X-ray crystal structure, 2.3 Å (TvVip2 [5]; with CTP and [4Fe-4S]) | Ki (UTP) (TvVip1 CTP-swap V2 [6]) [µM]
Nc1ccn([C@@H]2O[C@H](COP(=O)(O)OP(=O)(O)OP(=O)(O)O)[C@@H](O)[C@H]2O)c(=O)n1 [CTP] | > 360 | contain strong electron density representing the radical SAM [4Fe-4S] cluster, SAM, and CTP | 0.22 | > 4900 | TvVip2 F40H (PDB: 9DFU) in the presence of CTP and SAM | – | – | –
C[S+](CC[C@H](N)C(=O)O)C[C@H]1O[C@@H](n2cnc3c(N)ncnc32)[C@H](O)[C@@H]1O (stereo partly drawn) [SAM] | – | – | – | – | – | contain strong electron density representing the radical SAM [4Fe-4S] cluster, SAM, and CTP | TvVip2 F40H (PDB: 9DFU) in the presence of CTP and SAM | –
O=c1ccn([C@@H]2O[C@H](COP(=O)(O)OP(=O)(O)OP(=O)(O)O)[C@@H](O)[C@H]2O)c(=O)[nH]1 [UTP] | – | – | – | 19 ± 5.7 | – | – | – | > 59
